Laboratory results as given in patent publication US20190134005A1 (BioMarin Pharmaceutical Inc., priority 2016, published 2019).

Each compound was assayed against T1, human CGT (Homo sapiens, UniProt Q16880) (assay: Assay 1: CGT Enzymatic Assay (RapidFire/MS/MS, 0.01% Tween 80)). Settings: Table 1, Compounds of Formula (I) and Formula (II); CGT enzymatic assay, C6-NBD-dihydro-galactosylceramide readout; read-out: IC50.
T1 sequence (Q16880 21-541): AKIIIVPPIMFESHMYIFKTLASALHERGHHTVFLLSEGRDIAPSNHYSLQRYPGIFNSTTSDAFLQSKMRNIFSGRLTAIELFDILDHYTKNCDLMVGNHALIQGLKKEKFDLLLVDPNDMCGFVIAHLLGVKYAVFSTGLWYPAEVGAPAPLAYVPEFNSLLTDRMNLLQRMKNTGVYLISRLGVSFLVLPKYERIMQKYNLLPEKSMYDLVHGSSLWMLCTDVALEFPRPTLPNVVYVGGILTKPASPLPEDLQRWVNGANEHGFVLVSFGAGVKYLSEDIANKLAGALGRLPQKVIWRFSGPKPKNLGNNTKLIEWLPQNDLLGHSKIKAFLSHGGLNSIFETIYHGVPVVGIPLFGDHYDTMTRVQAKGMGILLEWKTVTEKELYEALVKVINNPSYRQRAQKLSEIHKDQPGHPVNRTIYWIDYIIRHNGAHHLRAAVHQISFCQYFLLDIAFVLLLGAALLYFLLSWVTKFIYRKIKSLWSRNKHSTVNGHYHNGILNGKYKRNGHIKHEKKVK
Format: biochemical
`Cc1ccc(N2C(=O)N(c3ccc(C#N)cc3)C3(COC3)C2(O)c2cccc(OC(F)(F)F)c2)cc1` (stereo not drawn) [Compound 277, 4-(8-hydroxy-6-oxo-7-(p-tolyl)-8-(3-(trifluoromethoxy)phenyl)-2-oxa-5,7-diazaspiro[3.4]octan-5-yl)benzonitrile] was tested, and the IC50 was under 1000 nM.
In the case of `CC1(C)N(c2ccc(C#N)cc2)C(=O)N(c2ccc(Cl)cc2)C1(O)c1cccc(C#N)c1` (stereo not drawn) [Example 309, 3-(3-(4-chlorophenyl)-1-(4-cyanophenyl)-4-hydroxy-5,5-dimethyl-2-oxoimidazolidin-4-yl)benzonitrile], the IC50 is reported as under 1000 nM.
In the case of `N#Cc1ccc(N2C(=O)N(c3ccc(C#N)cc3)C(O)(c3cccc(OC(F)(F)F)c3)C23CCC3)cc1` (stereo not drawn) [Compound 293, 4,4′-(8-hydroxy-6-oxo-8-(3-(trifluoromethoxy)phenyl)-5,7-diazaspiro[3.4]octane-5,7-diyl)dibenzonitrile], the IC50 is reported as under 1000 nM.

Same assay, conditions: Table 1, Compounds of Formula (I) and Formula (II); CGT enzymatic assay; read-out: IC50
Work on `C[C@@H]1N(c2ccc(C#N)cc2)C(=O)N(c2ccc(C#N)cc2)C1(O)c1cccc(OC(F)(F)F)c1` (stereo partly drawn) [Example 180-1, 4,4′-((5S)-4-hydroxy-5-methyl-2-oxo-4-(3-(trifluoromethoxy)phenyl)imidazolidine-1,3-diyl)dibenzonitrile] yielded an IC50 of under 1000 nM.
`CCC1N(c2ccc(Cl)cc2)C(=O)N(c2ccc(Cl)cc2)C1(O)c1cccc(OC(F)F)c1` (stereo not drawn) [Compound 118, 1,3-bis(4-chlorophenyl)-4-(3-(difluoromethoxy)phenyl)-5-ethyl-4-hydroxyimidazolidin-2-one] was tested, and the IC50 was under 1000 nM.
In the case of `CC(C)(C)c1cccc(C2(O)CN(c3ccc(Cl)cc3)C(=O)N2c2ccc(Cl)cc2)c1` (stereo not drawn) [Compound 128, 4-(3-(tert-butyl)phenyl)-1,3-bis(4-chlorophenyl)-4-hydroxyimidazolidin-2-one], the IC50 is reported as 10000 to 50000 nM.
For `CC[C@H]1N(c2ccc(Br)cc2)C(=O)N(c2ccc(Br)cc2)C1(O)c1ccccc1` (stereo partly drawn) [Example 25-2], the IC50 was under 1000 nM.
With `N#Cc1cccc(C2(O)[C@H](C3CCC3)N(c3ccc(Cl)cc3)C(=O)N2c2ccc(Cl)cc2)c1` (stereo partly drawn) [Example 194-1, 3-((5S)-1,3-bis(4-chlorophenyl)-5-cyclobutyl-4-hydroxy-2-oxoimidazolidin-4-yl)benzonitrile] the IC50 was under 1000 nM.
Compound `CCC1N(c2ccc(Br)cc2)C(=O)N(c2ccc(Br)cc2)C1(O)c1cccc(C(F)(F)F)c1` (stereo not drawn) [Compound 67, 1,3-bis(4-bromophenyl)-5-ethyl-4-hydroxy-4-(3-(trifluoromethyl)phenyl)imidazolidin-2-one] has an IC50 of under 1000 nM.
`CC1(C)N(c2ccc(Cl)cc2)C(=O)N(c2ccc(Cl)cc2)C1(O)c1cncc(C#N)c1` (stereo not drawn) [Example 186, 5-(1,3-bis(4-chlorophenyl)-4-hydroxy-5,5-dimethyl-2-oxoimidazolidin-4-yl)nicotinonitrile] gave an IC50 of under 1000 nM.
`C#Cc1cccc(C2(O)CN(c3ccc(Cl)cc3)C(=O)N2c2ccc(Cl)cc2)c1` (stereo not drawn) [Compound 60, 1,3-bis(4-chlorophenyl)-4-(3-ethynylphenyl)-4-hydroxyimidazolidin-2-one] gave an IC50 of under 1000 nM.
Work on `C[C@H]1N(c2ccc(C#N)cc2)C(=O)N(c2ccc(C#N)cc2)C1(O)c1cccc(OC(F)(F)F)c1` (stereo partly drawn) [Example 180-2, 4,4′-((5R)-4-hydroxy-5-methyl-2-oxo-4-(3-(trifluoromethoxy)phenyl)imidazolidine-1,3-diyl)dibenzonitrile] yielded an IC50 of under 1000 nM.
In the case of `O=C1N(c2cccc(Br)c2)C(=O)C(O)(c2ccccc2)N1c1cccc(Br)c1` (stereo not drawn) [Example 181, 1,3-bis(3-bromophenyl)-5-hydroxy-5-phenylimidazolidine-2,4-dione], the IC50 is reported as 50000 to 100000 nM.
In the case of `CCCCCCC1(O)C(=O)N(c2ccc(Br)cc2)C(=O)N1c1ccc(Br)cc1` (stereo not drawn) [Example 157, 1,3-bis(4-bromophenyl)-5-hexyl-5-hydroxyimidazolidine-2,4-dione], the IC50 is reported as 50000 to 100000 nM.
Compound `O=C1N(c2ccc(Br)cc2)C(=O)C(O)(c2ccc(N3CCCCC3)cc2)N1c1ccc(Br)cc1` (stereo not drawn) [Example 173, 1,3-bis(4-bromophenyl)-5-hydroxy-5-(4-(piperidin-1-yl)phenyl)imidazolidine-2,4-dione] has an IC50 of over 50000 nM.
